Tests used:
[1] = system: kainic acid-treated ICR mice; test: Seizure level in kainic acid epileptic seizure model; type: in vivo
Experimental: Four-week-old male ICR mice were fed with normal diet, tyrosine (L-Tyr), or tyrosine-containing peptide (3xYQ, 1xYW, or 3xYW) for one week. […] Kainic acid (KA) was dissolved in saline by heating in a water bath, resulting in a 4.5 mg/ml KA solution. The resulting KA solution was then intraperitoneally injected at a dose of 36 mg/kg, and seizure level and symptoms were recorded for 2 hours.

[2] = system: chronic immobilization stress C57BL/6 mice; test: Cognitive function (ORT/OLT) in chronic immobilization stress model; type: in vivo; conditions: stress group, peptide-supplemented diet vs normal diet
Experimental: To analyze the long-term memory capacity of animals following the peptide diet of the present invention, both the object recognition test (ORT) and object location recognition test (OLT) were conducted (FIG. 1). The tests consisted of three phases: habituation, familiarization, and test. During the habituation phase, the animals were acclimated to the testing apparatus for 10 minutes per day over two days. On the third day at the familiarization phase, the animals were allowed to explore two identical objects for 10 minutes. Subsequently, on the fourth day at the test phase, one of the objects was replaced with a novel object, and the animals were allowed to explore for 10 minutes, with result recorded during the initial 5 minutes was used as test data. The object recognition test (ORT) index was calculated using the following formula.
Discrimination index=(N−F)/(N+F) • N: Time spent for exploring new object • F: Time spent for exploring familiar object
After 24 hours of performing the ORT, the location of the familiar object was changed, and the animals were allowed to explore for 5 minutes. During the total exploration time, the ratio of time spent exploring the object with a changed location was calculated to determine the object location recognition test (OLT) index.
A total of 28 seven-week-old male C57BL/6 mice were divided into two groups: a control group and a stress group. […]

[3] = system: glutamine synthetase (GS); test: Hippocampal glutamine synthetase activity in kainic acid epileptic seizure model; conditions: survived mice after kainic acid
Experimental: Kainic acid (KA) was dissolved in saline by heating in a water bath, resulting in a 4.5 mg/ml KA solution. The resulting KA solution was then intraperitoneally injected at a dose of 36 mg/kg, and seizure level and symptoms were recorded for 2 hours. The brain tissues (prefrontal cortex and hippocampus) of the mice that survived 16 hours or 5 days after the KA injection were collected.
To a 96-well plate, 2 μl of hippocampal homogenate was added, and 50 μl of 50 mM imidazole-HCl buffer (pH 6.8) were added to adjust the volume to 50 μl. Then, 50 μl of GS assay buffer (50 mM imidazole-HCl, pH 6.8, 25 mM L-glutamine, 12.5 mM hydroxylamine, 12.5 mM sodium arsenate, 1 mM MnCl2, and 0.08 mM ADP) were added and the reaction was allowed to occur at 37° C. for approximately 40 minutes. […] To terminate the reaction, 100 μl of stop solution (90 mM FeCl3, 1.8 N HCl, and 1.45% w/v trichloroacetic acid) were added to both the samples and the standard substance, and the absorbance was measured at 560 nm. The GS activity in each sample was determined by comparing it with the standard curve. GS activity was expressed as the generation amount of γ-glutamylhydroxamate, which is produced as a final product, and described in unit of μM/min/μg protein.

[4] = system: glutamine synthetase (GS); test: GS activity and GS tyrosine nitration in PFC, chronic immobilization stress model; type: in vivo, C57BL/6 mice; conditions: stress group
Experimental: Using the prefrontal cortex (PFC) lysate samples from mice obtained after the completion of chronic immobilization stress, GS activity and GS expression level were measured by following the method described above.
Furthermore, the level of tyrosine nitration within GS was measured by using immunoprecipitation (IP)-WB. The immunoprecipitation analysis of tyrosine-nitrated GS was performed using an anti-nitrotyrosine antibody (ab61392, Abcam) and Protein A/G PLUS-Agarose (Santa Cruz) according to the manufacturer's protocol.

[5] = system: chronic immobilization stress C57BL/6 mice; conditions: stress group, peptide diet vs normal diet
Experimental: A total of 28 male C57BL/6 mice at 7 weeks of age were divided into two groups: a control group (CTL) and a stress group (STR). The stress group was subjected to chronic immobilization stress for 15 days. Specifically, each mouse in the stress group was individually placed in a restrainer for 2 hours daily from […] to induce chronic immobilization stress. The control group (CTL) and stress group (STR) were further classified based on their diets. […] After the completion of the 15-day chronic immobilization stress, the mice were subjected to a sucrose preference test (SPT). Blood samples and prefrontal cortex (PFC) tissues were collected from the mice for subsequent test.
For the analysis of anti-depressive effect, blood and PFC tissues were collected from mice that underwent chronic immobilization stress. The blood collected from mice was centrifuged at 1,000×g for 10 minutes at 4° C. to separate the plasma, and the supernatant was collected and diluted 1/20 with PBS to prepare a sample. The corticosterone concentration in the plasma was then measured using the Corticosterone EIA kit (Cayman) by following the manufacturer's instructions.
In addition, the plasma diluted with PBS at a ⅓ ratio and the PFC tissue lysate (50 μg) were prepared. The ROS/RNS (reactive oxygen species/reactive nitrogen species) level in the plasma and PFC tissues was measured using the ROS/RNS assay kit (Cell Biolabs) according to the manufacturer's instructions.
In addition, the depression was evaluated by measuring the sucrose preference of mice that had undergone 15 days of chronic immobilization stress. The sucrose preference test was conducted over a total of 4 days. Equal amounts of 0.1 M sucrose solution and water were provided in identical bottles of the same size and shape. On the first day, mice were given access to 0.1 M sucrose solution and water for 24 hours. On the second day, the positions of the sucrose solution and water bottles were switched, and mice were given access for 24 hours. On the third day, no sucrose solution or water was provided. On the fourth day, mice were again given access to equal amounts of 0.1 M sucrose solution and water for 3 hours, the positions were then switched, and access was provided for another 3 hours. The amount of sucrose solution and water consumed during the 6-hour period on the fourth day was measured, and the sucrose preference (%) was calculated according to the following formula.
Sucrose preference (%)=Sucrose intake amount/(Water intake amount+Sucrose intake amount)×100

tyrosine-tryptophan [YW]
seizure level ([1]; 1xYW diet one week vs normal diet): statistically significantly decreased
cognitive function [2]: enhanced cognitive function
activity of the glutamine synthetase in the hippocampal tissue ([3]; 1xYW): increased
activity of the glutamine synthetase in the hippocampal tissue ([3]; 3xYW): increased

glutamine-tyrosine [QY]
tyrosine nitration level of GS ([4]; IP-WB, peptide diet vs normal diet): statistically significant decrease
GS activity ([4]; peptide diet (330 mg/kg) vs normal diet): statistically significant increase
ROS/RNS level in PFC tissue [5]: decreased
sucrose preference [5]: increased

N[C@@H](Cc1ccc(O)cc1)C(=O)O [L-Tyr, L-tyrosine, reference compound]
seizure level ([1]; 5xL-Tyr diet vs normal diet): statistically significantly decreased
